Results on 3 compounds are retold here after patent US12071671B2 (priority 2018, dated 2024).

Read-outs that look alike come from different tables or passages of the source.

The test system of assay [1] is HMCLs with the low AOX/ROS risk signatures (JJN3, XG-6, XG-19, XG-20, XG-24). The experiment in a line: HMCL viability, Cell Titer Glo assay, IC50 at 96h (low AOX/ROS risk signature lines). The following applies: for IC50: Homo sapiens; for fold higher sensitivity of low AOX/ROS HMCLs as compared to high AOX/ROS HMCLs: ratio of median IC50 at 96h, p<0.003. It counts as cell-based, human. The procedure: (§1) The HMCLs XG-6, XG-19, XG-20, XG24, JJN3, AMO1, LP1, L363, OPM2 and RPMI8226 were grown in RPMI-1640 supplemented with 10% FBS. XG-6, XG-19, XG-20, XG-24, and LP1 media was supplemented with 2 ng/mL recombinant IL-6. Cells were plated in 96-well plate in 200 μL complete medium. After 24h, cells were treated with increasing concentrations of Melphalan (European Pharmacopeia Reference-Standards, France) or Bortezomib (Axon, Medchem, France) and at day 4 post treatment, the viable cells were assessed using Cell Titer Glo assay (Promega, Madison, WI). The IC50 at 96h were determined using GraphPad Prism software.
(§2) Considering the GEP of 40 HMCLs (Moreaux et al., 2011), HMCLs AOX and ROS risk signatures were determined. The 5 HMCLs with the highest (AMO1, L363, LP1, OPM2, RPMI8266) and the lowest (JJN3, XG-6, XG-19, XG-20, XG-24) AOX/ROS scores were selected to assay Melphalan and Bortezomib sensitivities (Moreaux et al., 2012 and Moreaux et al., 2013).

Assay [2] has as its system CD138+ cells from patients (primary myeloma cells). The experiment in a line: Primary CD138+ myeloma cells from patient bone marrow samples, flow cytometry with anti-CD138 APC antibody after 5 days. It counts as cell-based, human. To be noted: 5 mM GSH with 10, 20 and 30 μM Melphalan, n=10 patients, p<0.05.
Procedure: After 5 days the percentage and absolute number of CD138^+ cells was assessed by flow cytometry using an anti-CD138 APC antibody. * indicates a significant difference using a Student test for pairs (P≤0.05).
Assay [3] relates to HMCLs with high AOX/ROS risk signatures (AMO1, L363, LP1, OPM2, RPMI8266). The experiment in a line: HMCL viability, Cell Titer Glo assay, IC50 at 96h (high AOX/ROS risk signature lines). The following applies: Homo sapiens. In kind it is cell-based. On the procedure: as §1, §2

Consider `CC(C)C[C@H](NC(=O)[C@H](Cc1ccccc1)NC(=O)c1cnccn1)B(O)O` [Bortezomib], for which the 50% inhibitory concentration (IC50) in assay [1] (JJN-3, low AOX/ROS HMCLs, 96h, median over 5 cell lines, read-out: Median IC50) is 0.00051 µM; in assay [1] (JJN-3, low AOX/ROS HMCLs, 96h, range over 5 cell lines, read-out: IC50 range), 0.00027 to 0.00085 µM. The “fold higher sensitivity of low AOX/ROS HMCLs as compared to high AOX/ROS HMCLs” value in assay [1] was determined as 3.5 fold.

Consider `N[C@@H](CCC(=O)N[C@@H](CS)C(=O)NCC(=O)O)C(=O)O` [GSH, glutathione], for which the “protection of primary myeloma cells from melphalan induced apoptosis” value in assay [2] is “significantly protect”.

With `N[C@@H](Cc1ccc(N(CCCl)CCCl)cc1)C(=O)O` [Melphalan], the IC50 in assay [1] (JJN-3, 96 h, read-out: IC50 range) was 2.25 to 8.34 µM; in assay [1] (JJN-3, 96 h, read-out: Median IC50) it was 3.11 µM; in assay [3] (read-out: IC50 range), 9.02 to 18.7 µM; in assay [3] (read-out: Median IC50), 13.7 µM. Further, in assay [1], the “fold higher sensitivity of low AOX/ROS HMCLs as compared to high AOX/ROS HMCLs” value is reported as 4 fold.
